# According to patent publication US20100022639A1, “Methods of Inducing Weight Loss” (The Johns Hopkins University School of Medicine Licensing …, priority 2000, published 2010):
# Assays:
# [1] = Weight loss in mice lacking IL-1r and TNFαr1a receptors; details: mouse, in vivo
# Excerpt: (§1) Alternatively, the signal from the FAS target tissue to the hypothalamus may be mediated by a humoral signal. This FAS-associated signal appears to be independent of the systemic release of the known feeding inhibitory hormones leptin and insulin, and the pro-inflammatory cytokines tumor necrosis factor-α and interleukin-1β. Nor is it reversed by administration of dexamethasone, a synthetic glucocorticoid.
# hepatic malonyl-CoA = experiment: Hepatic malonyl-CoA level after dextrose gavage and IP C-75; assay type: in vivo, BALB/c mice; details: 20 mg/kg IP, one hour post-treatment, after 2 g/kg dextrose
# Method: (§2) Male BALB/c mice (4 per group) were given 2 g/kg dextrose by oral gavage. After 15 min mice were injected IP with 20 mg/kg C-75 or RPMI vehicle. One hour post-treatment, livers were rapidly removed, frozen and pulverized in liquid nitrogen, HC104 extracted and assayed for malonyl-CoA [J. D. McGarry, M. J. Stark, D. W. Foster., J. Biol. Chem 253, 8291 (1978)]. Intraperitoneal injection of mice with C-75 leads to a 95% reduction in ^14C-acetate incorporation into fatty acids and to a 110% increase in the level of hepatic malonyl-CoA, the principal substrate of FAS. Experiments described in panels B and C were repeated twice.
# [2] = system: neuropeptide Y (NPY) mRNA; experiment: Northern blot of hypothalamic NPY mRNA; assay type: in vivo, BALB/c mice; details: 30 mg/kg C-75, 24 hours
# Excerpt: The control of body weight is integrated in the hypothalamus by a coordinated group of neuropeptides that monitor adiposity and feeding status and regulate feeding and energy utilization. A central regulator in this process is neuropeptide Y (NPY) (loftus, 1999, Sem. Cell. Dev. Biol., 10: 11). In the arcuate nucleus, the level of NPY increases in the fasted state (Schwartz, et al., 1998, Endocrinology, 139:2629), acting as a potent stimulus of feeding (O'Shea, et al., 1997, Endocrinology, 138:196-202). To ascertain whether C-75 might alter NPY regulation in the hypothalamus, the expression of NPY was examined by northern blot analysis of hypothalamic tissue microdissected from the brains of the fed, fasted and C-75-treated mice shown in FIG. 2A.
# The hypothalamic region was microdissected from the brains of mice in FIG. 2A and total RNA was isolated. RNA was subjected to northern blot analysis using random primed probes (Feinberg, et al., 1983, Anal. Biochem., 132:6) for NPY and S26 (as a loading control). Tissue was extracted for total RNA as described, P. Chomczynski and N. Sacchi, Anal. Biochem. 162, 156(1987). 15 μg of total RNA was subjected to Northern blot analysis as described, T. Brown, K. Mackey, in Current Protocols in Molecular Biology, F. Ausubel, et al., Eds. (John Wiley and Sons, New York, 1997) pp. 4.9.1-4.9.16.
# [3] = Body weight after a single IP injection; assay type: in vivo, BALB/c mice
# Method: (§3) The effect of C-75 treatment on feeding behavior and body weight in mice is both rapid and dramatic. A single treatment leads to the loss of as much as 20% of total body weight within 24 hours (FIG. 1.2A). This weight loss occurs in a dose dependent manner and persists for a duration that increases with dose. In all cases, treated animals recover lost body weight after the effect of the drug has dissipated, arguing against induction of a persistent wasting.
# Male BALB/c mice 19-22 g were weighed, treated by a single intra peritoneal (I.P.) injection and housed in metabolic cages. Body weight (FIG. 1.2A) and food intake (FIG. 1.2B) were monitored at 24 hour intervals.
# [4] = Weight loss of C-75-treated versus fasted mice; assay type: in vivo, BALB/c mice; details: 30 mg/kg, 24 hours, n=7
# Excerpt: To determine whether the weight loss is attributable entirely to suppression of feeding, treatment with a dose of C-75 that completely suppresses feeding was compared with fasting. Both fasting and C-75 led to significant weight loss relative to control; however, in many experiments the C-75 treated mice lost more weight than did the fasted animals (FIG. 2A). The normal response to fasting is to reduce energy utilization to limit depletion of energy stores (Loftus, 1999). If C-75 treatment results in a “perceived fed state”, it may allow maintenance of a normal metabolic rate as well as inhibition of feeding.
# Male BALB/c mice 19-21 g were preweighed and treated with vehicle or 30 mg/kg C-75 and allowed free access to food, or were denied all access to food (fasted). After 24 hours, mice were weighed. Change from initial body weight is shown in FIG. 2A, expressed as mean +/±SEM (n=7). C-75 treated mice lost 45% more weight than did the fasted animals.
# [5] = Necropsy, histology, plasma alanine aminotransferase and tolerability in treated mice; assay type: in vivo
# Excerpt: as §1, §3
# [6] = system: adipose fatty acid synthesis; experiment: [U-14C]-acetate labeling of adipose tissue from C-75-treated mice; assay type: in vivo, BALB/c mice
# Method: Female BALB/c mice were treated with 0.6 mg of C-75 in 200 μl RPMI, or vehicle control IP (3 per group). After 3 hours, the animals were killed and approximately 5 mg of adipose tissue was labeled with [U-^14C]-acetate, lipids were extracted and counted, [A. Rashid et al., Am. J. Pathol. 150 (1997)]. […] Values represent mean +/−SEM (*P<0.05).
# as §2
# [7] = Body weight of ob/ob mice over two week treatment; assay type: in vivo; details: 22 mg/kg IP every third day, two weeks
# Excerpt: The magnitude of this effect is readily evident by inspection of representative C-75 and control treated ob/ob mice.
# 3T3-L1 adipocytes = experiment: Cytoplasmic triglyceride accumulation in adipocytes in cell culture; assay type: cell-based; details: 3T3-L1 adipocytes in cell culture (not shown)
smiles,measurement,setting,value
C=C1C(=O)OC(CCCCCCCC)C1C(=O)O (centres unmarked) [C-75],weight loss in mice lacking IL-1r and TNFαr1a receptors,[1],weight loss was observed
same,increase in the level of hepatic malonyl-CoA,hepatic malonyl-CoA,110%
same,level of hypothalamic NPY mRNA,[2],even lower than that of the fed controls
same,loss of total body weight after a single treatment,"[3]; within 24 hours, single IP treatment, 7.5-30 mg/kg",≤ 20%
same,loss of total body weight,"[3]; within a 24 hour period, BALB/c mice",10-20%
same,more weight lost than fasted animals,[4],45%
same,tolerability in mice,[5]; single IP treatment,well tolerated
same,histological analysis of tissues from treated mice,[5]; single IP treatment (not shown),no indication of adverse pathology
same,necropsy and histological analysis of all major organs,[5]; treated mice,no adverse pathology
same,plasma alanine aminotransferase activity,[5]; treated mice,unchanged
same,adipose fatty acid synthesis compared to vehicle control,"[6]; 0.6 mg C-75 IP, 3 hours, female BALB/c mice",markedly inhibited
same,reduction in 14C-acetate incorporation into fatty acids,[6]; intraperitoneal injection,95%
same,body weight of ob/ob mice,[7],substantial reduction in the body weight
same,cytoplasmic triglyceride accumulation,3T3-L1 adipocytes,markedly reduces cytoplasmic triglyceride accumulation
